The text below walks through data of article PMC5340293 (Bioorganic & medicinal chemistry letters, 2016).

Read-outs that look alike come from different tables or passages of the source.

Assay [1] concerns the target T1, PAR4 (Homo sapiens, UniProt Q96RI0).
T1 sequence (Q96RI0 18-385): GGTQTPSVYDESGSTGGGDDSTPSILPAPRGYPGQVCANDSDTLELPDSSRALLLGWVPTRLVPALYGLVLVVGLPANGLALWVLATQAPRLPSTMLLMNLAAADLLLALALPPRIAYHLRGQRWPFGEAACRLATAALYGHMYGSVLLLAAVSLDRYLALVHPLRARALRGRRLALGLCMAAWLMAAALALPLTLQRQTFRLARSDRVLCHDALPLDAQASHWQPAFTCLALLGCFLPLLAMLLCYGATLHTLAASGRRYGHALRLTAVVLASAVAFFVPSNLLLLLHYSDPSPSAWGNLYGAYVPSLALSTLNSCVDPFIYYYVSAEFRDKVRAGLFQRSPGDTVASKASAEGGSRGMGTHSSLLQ
The experiment in a line: Progressive fold-shift. It counts as cell-based. The note with it: for mode of PAR4 inhibition: progressive fold-shift, parallel right-ward shift of CRC.

Assay [2] concerns the target T1, PAR4. The note with it: cited from earlier work.
The next assay deals with collagen receptor. The experiment in a line: Platelet aggregation, collagen I activation. The note with it: 10 μg/ml collagen I; antagonist at micromolar concentrations. It counts as cell-based, human.
Assay [3] concerns the target T1, PAR4. Briefly: PAR4-AP stimulated PAC-1 binding, flow cytometry. It counts as cell-based. (In general: Flow cytometry measures light scatter and fluorescence of single cells or particles in a stream.)
The target of assay [4] is T2, PAR4 (Homo sapiens, UniProt Q96RI0).
T2 sequence (Q96RI0 48-385 limits assumed): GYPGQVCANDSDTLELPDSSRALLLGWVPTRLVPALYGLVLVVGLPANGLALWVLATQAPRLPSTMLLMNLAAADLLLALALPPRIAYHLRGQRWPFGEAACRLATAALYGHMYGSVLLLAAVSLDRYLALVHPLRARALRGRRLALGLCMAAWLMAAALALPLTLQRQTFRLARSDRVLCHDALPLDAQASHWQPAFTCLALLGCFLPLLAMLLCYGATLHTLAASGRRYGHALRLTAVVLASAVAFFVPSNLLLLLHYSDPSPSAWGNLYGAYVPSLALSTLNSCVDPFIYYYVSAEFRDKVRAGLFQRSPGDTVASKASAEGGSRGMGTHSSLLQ
Briefly: γ-thrombin stimulated PAC-1 binding, flow cytometry. It counts as cell-based.

With `COc1nn2cc(-c3ccc(Cl)cc3)nc2s1` [4k], on PAR4 [1], the “Schild EC50 log DR-1 versus log [antagonist] plot slope” value is 1.09±1.3 and the “mode of PAR4 inhibition” value is reported as “competitive”. As to `COc1cc(OCc2csc(-c3ccccc3)n2)c2cc(-c3cn4nc(OC)sc4n3)oc2c1` [compound 2], at PAR4 [2], the “mode of PAR4 inhibition” value is given as “mixed competitive/non-competitive”. For the molecule `COc1nn2cc(-c3cc4ccccc4o3)nc2s1` [compound 3, 6-(benzofuran-2-yl)-2-methoxyimidazo[2,1-b][1,3,4]thiadiazole], in the assay on collagen receptor, the “off-target effects on the collagen receptor (collagen I induced aggregation)” value was “devoid”. Consider `CNc1nn2cc(-c3c(F)cccc3F)nc2s1` [NHCH3 derivative], for which the PAR4 inhibitory activity entry at PAR4 [3] (result in words) is “inactive”. With `COc1nn2cc(-c3cc4cc(OC(F)(F)F)ccc4n3C)nc2s1` [compound 5], the “fold more potent than 1 against AP” value at PAR4 [3] is ~ 9 fold. For the same molecule, the “γ-thrombin ligand efficiency (LE)” value on PAR4 [4] was 0.33. For the same molecule, in the assay with collagen receptor, the “off-target effects on the collagen receptor (collagen I induced aggregation)” value is on record as “eliminated”. For the molecule `COc1nn2cc(-c3ccc(C(F)(F)F)cc3)nc2s1` [4c], at PAR4 [1], the “Schild EC50 log DR-1 versus log [antagonist] plot slope” value worked out at 0.95±0.09 and the “mode of PAR4 inhibition” value is reported as “competitive”. For `COc1nn2cc(-c3ccc(OC(F)(F)F)cc3)nc2s1` [4n] the same measures were 0.94±0.08 and “competitive”.
